Assay results: publication PMC12203311, “Design, synthesis, in silico and in vitro evaluation of pyrrole–indole hybrids as dual tubulin and aromatase inhibitors with potent anticancer activities” (RSC Advances, 2025)

Key:
Test in all cases: NCI60 five-dose screen
PC-3 = format: cell-based; settings: Homo sapiens, PC-3, prostate cancer; for CC50: read-out: LC50 (the source's name)
UACC-62 = format: cell-based; settings: Homo sapiens, UACC-62, melanoma; for CC50: read-out: LC50 (the source's name)
SF-295 = format: cell-based; settings: Homo sapiens, SF-295, CNS cancer; for CC50: read-out: LC50 (the source's name)
SN12C = format: cell-based; settings: Homo sapiens, renal cancer; for CC50: read-out: LC50 (the source's name)
SNB-19 = format: cell-based; settings: Homo sapiens, SNB-19, CNS cancer; for CC50: read-out: LC50 (the source's name)
SK-MEL-5 = format: cell-based, human; settings: Homo sapiens; for CC50: SK-MEL-5, SK-MEL-5, melanoma, read-out: LC50 (the source's name); for GI50: SK-MEL-5, melanoma
HCT-116 = format: cell-based; settings: Homo sapiens, HCT-116, colon cancer; for CC50: read-out: LC50 (the source's name)
NCI/ADR-RES = format: cell-based, human; settings: Homo sapiens, ovarian cancer; for CC50: read-out: LC50 (the source's name)
ACHN = format: cell-based; settings: Homo sapiens, renal cancer; for CC50: read-out: LC50 (the source's name)
UO-31 = format: cell-based; settings: Homo sapiens, UO-31, renal cancer; for CC50: read-out: LC50 (the source's name)
SK-OV-3 = format: cell-based; settings: Homo sapiens, SK-OV-3, ovarian cancer; for CC50: read-out: LC50 (the source's name)
HCT-15 = format: cell-based; settings: Homo sapiens, HCT-15, colon cancer; for CC50: read-out: LC50 (the source's name)
T-47D = format: cell-based; settings: Homo sapiens, T47D, breast cancer; for CC50: read-out: LC50 (the source's name)
MCF7 = format: cell-based; settings: Homo sapiens; for CC50: read-out: LC50 (the source's name)
MDA-MB-468 = format: cell-based; settings: Homo sapiens, MDA-MB-468, breast cancer; for CC50: read-out: LC50 (the source's name)
IGROV1 = format: cell-based; settings: Homo sapiens, IGROV-1; IGROV1, ovarian cancer
NCI-H226 = format: cell-based; settings: Homo sapiens, NCI-H226, NSC lung cancer; for CC50: read-out: LC50 (the source's name)
K-562 = format: cell-based; settings: Homo sapiens, K562, K-562, leukemia; for CC50: read-out: LC50 (the source's name)
EKVX = format: cell-based; settings: Homo sapiens, NSC lung cancer; for CC50: read-out: LC50 (the source's name)
BT-549 = format: cell-based; settings: Homo sapiens, BT-549, breast cancer; for CC50: read-out: LC50 (the source's name)
MDA-MB-231/ATCC = format: cell-based; settings: Homo sapiens, breast cancer; for CC50: read-out: LC50 (the source's name)
HT29 = format: cell-based; settings: Homo sapiens, HT-29, HT29, colon cancer; for CC50: read-out: LC50 (the source's name)
SNB-75 = format: cell-based; settings: Homo sapiens, SNB-75, CNS cancer; for CC50: read-out: LC50 (the source's name)
SF-268 = format: cell-based; settings: Homo sapiens, SF-268, CNS cancer; for CC50: read-out: LC50 (the source's name)
HCC-2998 = format: cell-based; settings: Homo sapiens, HCC-2998, colon cancer; for CC50: read-out: LC50 (the source's name)
OVCAR-8 = format: cell-based; settings: Homo sapiens, OVCAR-8, ovarian cancer; for CC50: read-out: LC50 (the source's name)
OVCAR-3 = format: cell-based; settings: Homo sapiens, OVCAR-3, ovarian cancer; for CC50: read-out: LC50 (the source's name)
RPMI-8226 = format: cell-based; settings: Homo sapiens, RPMI-8226, leukemia; for CC50: read-out: LC50 (the source's name)
MOLT-4 = format: cell-based; settings: Homo sapiens, MOLT-4, leukemia; for CC50: read-out: LC50 (the source's name)
SF-539 = format: cell-based; settings: Homo sapiens, SF-539, CNS cancer; for CC50: read-out: LC50 (the source's name)
A549/ATCC = format: cell-based; settings: Homo sapiens, NSC lung cancer; for CC50: read-out: LC50 (the source's name)
SK-MEL-2 = format: cell-based; settings: Homo sapiens, SK-MEL-2, melanoma; for CC50: read-out: LC50 (the source's name)
LOX IMVI = format: cell-based; settings: Homo sapiens, melanoma; for CC50: read-out: LC50 (the source's name)

Structure (SMILES): CCc1ccc(/C=N/NC(=O)c2[nH]c3ccc(Br)cc3c2-c2ccccc2)[nH]1 [Derivative 3s, (E)-5-Bromo-N′-((5-ethyl-1H-pyrrol-2-yl)methylene)-3-phenyl-1H-indole-2-carbohydrazide]
- GI50 (PC-3): 532 nM
- CC50 (PC-3): > 100000 nM
- GI50 (UACC-62): 381 nM
- CC50 (UACC-62): 38100 nM
- GI50 (SF-295): 246 nM
- CC50 (SF-295): 31900 nM
- GI50 (SN12C): 392 nM
- CC50 (SN12C): 30300 nM
- GI50 (SNB-19): 1820 nM
- CC50 (SNB-19): 51800 nM
- CC50 (SK-MEL-5): 10100 nM
- GI50 (SK-MEL-5): 381 nM
- GI50 (HCT-116): 325 nM
- CC50 (HCT-116): 31900 nM
- GI50 (NCI/ADR-RES): 253 nM
- CC50 (NCI/ADR-RES): 30200 nM
- GI50 (ACHN): 861 nM
- CC50 (ACHN): 36600 nM
- GI50 (UO-31): 644 nM
- CC50 (UO-31): 59900 nM
- GI50 (SK-OV-3): 514 nM
- CC50 (SK-OV-3): 50100 nM
- GI50 (HCT-15): 349 nM
- CC50 (HCT-15): 37400 nM
- GI50 (T-47D): 681 nM
- CC50 (T-47D): 52700 nM
- GI50 (MCF7; MCF7, breast cancer): 369 nM
- CC50 (MCF7; MCF7, breast cancer): 45900 nM
- GI50 (MDA-MB-468): 248 nM
- CC50 (MDA-MB-468): 25900 nM
- GI50 (IGROV1): 612 nM
- LC50 (concentration causing 50% net cell kill) (IGROV1): 43300 nM
- GI50 (NCI-H226): 506 nM
- CC50 (NCI-H226): 32300 nM
- GI50 (K-562): 338 nM
- CC50 (K-562): > 100000 nM
- GI50 (EKVX): 453 nM
- CC50 (EKVX): 43000 nM
- GI50 (BT-549): 979 nM
- CC50 (BT-549): 30300 nM
- GI50 (MDA-MB-231/ATCC): 630 nM
- CC50 (MDA-MB-231/ATCC): 48400 nM
- GI50 (HT29): 298 nM
- CC50 (HT29): 33800 nM
- GI50 (SNB-75): 285 nM
- CC50 (SNB-75): 54100 nM
- GI50 (SF-268): 1470 nM
- CC50 (SF-268): 83000 nM
- GI50 (HCC-2998): 1450 nM
- CC50 (HCC-2998): 35100 nM
- GI50 (OVCAR-8): 337 nM
- CC50 (OVCAR-8): 25200 nM
- GI50 (OVCAR-3): 356 nM
- CC50 (OVCAR-3): 36100 nM
- GI50 (RPMI-8226): 375 nM
- CC50 (RPMI-8226): > 100000 nM
- GI50 (MOLT-4): 464 nM
- CC50 (MOLT-4): > 100000 nM
- GI50 (SF-539): 225 nM
- CC50 (SF-539): 29800 nM
- GI50 (A549/ATCC): 399 nM
- CC50 (A549/ATCC): 70300 nM
- GI50 (SK-MEL-2): 647 nM
- CC50 (SK-MEL-2): 45900 nM
- GI50 (LOX IMVI): 722 nM
- CC50 (LOX IMVI): 36100 nM

Structure (SMILES): Cn1cccc1/C=N/NC(=O)c1[nH]c2ccc(Br)cc2c1-c1ccccc1 [Derivative 3d, (E)-5-Bromo-N′-((1-methyl-1H-pyrrol-2-yl)methylene)-3-phenyl-1H-indole-2-carbohydrazide]
- GI50 (PC-3): 564 nM
- CC50 (PC-3): > 100000 nM
- GI50 (UACC-62): 283 nM
- CC50 (UACC-62): > 100000 nM
- GI50 (SF-295): 321 nM
- CC50 (SF-295): > 100000 nM
- GI50 (SN12C): 497 nM
- CC50 (SN12C): > 100000 nM
- GI50 (SNB-19): 449 nM
- CC50 (SNB-19): > 100000 nM
- CC50 (SK-MEL-5): > 100000 nM
- GI50 (SK-MEL-5): 196 nM
- GI50 (HCT-116): 427 nM
- CC50 (HCT-116): > 100000 nM
- GI50 (NCI/ADR-RES): 186 nM
- CC50 (NCI/ADR-RES): 40900 nM
- GI50 (ACHN): 175 nM
- CC50 (ACHN): > 100000 nM
- GI50 (UO-31): 330 nM
- CC50 (UO-31): > 100000 nM
- GI50 (SK-OV-3): 1610 nM
- CC50 (SK-OV-3): > 100000 nM
- GI50 (HCT-15): 228 nM
- CC50 (HCT-15): > 100000 nM
- GI50 (T-47D): 344 nM
- CC50 (T-47D): > 100000 nM
- GI50 (MCF7; MCF7, MCF-7 breast cancer cells): 72 nM
- CC50 (MCF7; MCF7, breast cancer): > 100000 nM
- GI50 (MDA-MB-468): 155 nM
- CC50 (MDA-MB-468): > 100000 nM
- GI50 (IGROV1): 621 nM
- GI50 (NCI-H226): 603 nM
- CC50 (NCI-H226): > 100000 nM
- GI50 (K-562): 327 nM
- CC50 (K-562): > 100000 nM
- GI50 (EKVX): 641 nM
- CC50 (EKVX): > 100000 nM
- GI50 (BT-549): 2810 nM
- CC50 (BT-549): > 100000 nM
- GI50 (MDA-MB-231/ATCC): 237 nM
- CC50 (MDA-MB-231/ATCC): > 100000 nM
- GI50 (HT29): 327 nM
- CC50 (HT29): > 100000 nM
- GI50 (SNB-75): 259 nM
- CC50 (SNB-75): > 100000 nM
- GI50 (SF-268): 547 nM
- CC50 (SF-268): > 100000 nM
- GI50 (HCC-2998): 402 nM
- CC50 (HCC-2998): > 100000 nM
- GI50 (OVCAR-8): 390 nM
- CC50 (OVCAR-8): > 100000 nM
- GI50 (OVCAR-3): 246 nM
- CC50 (OVCAR-3): > 100000 nM
- GI50 (RPMI-8226): 610 nM
- CC50 (RPMI-8226): > 100000 nM
- GI50 (MOLT-4): 438 nM
- CC50 (MOLT-4): > 100000 nM
- GI50 (SF-539): 217 nM
- CC50 (SF-539): > 100000 nM
- GI50 (A549/ATCC): 649 nM
- CC50 (A549/ATCC): > 100000 nM
- GI50 (SK-MEL-2): 366 nM
- CC50 (SK-MEL-2): > 100000 nM
- GI50 (LOX IMVI): 494 nM
- CC50 (LOX IMVI): > 100000 nM
